Laboratory results from US20250313572A1, “MACROCYCLIC MCL-1 INHIBITORS AND METHODS OF USE” (AbbVie Inc., priority 2017, published 2025).
Where two headings read alike, the source gives them in different places.

Legend:
[1] = test system: NCI-H929 human multiple myeloma tumor cell line; assay: NCI-H929 cell viability assay (CellTiter-Glo, 24 hours); type: cell-based; conditions: Homo sapiens, NCI-H929, 24 h, read-out: H929 Viability IC50 (μM, 10% FBS), 10% FBS, 24 hours of compound treatment
GST-MCL-1 = GST-MCL-1 (Homo sapiens, UniProt Q07820); assay: TR-FRET MCL-1 binding assay (competition with probe F-Bak)
Summary of the method: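 Test compounds, 11 three-fold dilutions from 25 μM final, incubated 2 hours at room temperature with GST-MCL-1, F-Bak probe and Tb-anti-GST antibody. TR-FRET read at 340/35 nm excitation with 520/525 and 495/510 nm emission. Run without human serum and with 10% HS.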

[2] = test system: AMO-1 human multiple myeloma tumor cell line; assay: AMO-1 cell viability assay (CellTiter-Glo, 24 hours); type: cell-based; conditions: Homo sapiens, AMO1, 24 h, read-out: AMO-1 Viability IC50 (μM, 10% FBS), 10% FBS, 24 hours of compound treatment
[3] = MCL-1 Binding Ki (nM, 10% HS), in the presence of 10% HS (human serum)
[4] = without HS, read-out: MCL-1 Binding Ki

GST-MCL-1, sequence (Q07820 whole entry): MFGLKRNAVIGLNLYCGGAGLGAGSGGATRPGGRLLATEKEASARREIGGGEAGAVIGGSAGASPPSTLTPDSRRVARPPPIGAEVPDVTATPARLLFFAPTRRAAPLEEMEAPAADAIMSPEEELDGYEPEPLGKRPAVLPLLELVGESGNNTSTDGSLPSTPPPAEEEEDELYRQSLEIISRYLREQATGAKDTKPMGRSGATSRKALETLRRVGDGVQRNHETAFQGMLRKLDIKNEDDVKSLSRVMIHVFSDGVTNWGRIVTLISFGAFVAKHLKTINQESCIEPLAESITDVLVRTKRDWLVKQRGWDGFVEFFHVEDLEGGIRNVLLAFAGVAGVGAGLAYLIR

Row | SMILES | IC50 [1] [µM] | Ki (GST-MCL-1; [3]) [nM] | Ki (GST-MCL-1; [4]) [nM] | IC50 [2] [µM]
1 | COCCOCCOCCOCCN(CCOCCOCCOCCOC)c1nccc(COc2ccc3cc2C[C@H](C(=O)O)Oc2ncnc4sc(-c5ccc(F)cc5)c(c24)-c2c(C)c(Cl)c(c(Cl)c2C)O[C@H](CN2CCN(C)CC2)CO3)n1 [Example 109, (7R,16R)-10-({2-[bis(2,5,8,11-tetraoxatridecan-13-yl)amino]pyrimidin-4-yl}methoxy)-19,23-dichloro-1-(4-fluorophenyl)-20,22-dimethyl-16-[(4-methylpiperazin-1-yl)methyl]-7,8,15,16-tetrahydro-18,21-etheno-13,9-(metheno)-6,14,17-trioxa-2-thia-3,5-diazacyclononadeca[1,2,3-cd]indene-7-carboxylic Acid] | 0.0128 | 2.43 | 0.104 | 0.0166
2 | COCCOCCOCCOCCOCCOCCO[C@H]1CC[C@H](c2nccc(COc3ccc4cc3C[C@H](C(=O)O)Oc3ncnc5sc(-c6ccc(F)cc6)c(c35)-c3c(C)c(Cl)c(c(Cl)c3C)O[C@H](CN3CCN(C)CC3)CO4)n2)CC1 [Example 67, (7R,16R)-19,23-dichloro-1-(4-fluorophenyl)-10-[(2-{(1r,4r)-4-[(2,5,8,11,14,17-hexaoxanonadecan-19-yl)oxy]cyclohexyl}pyrimidin-4-yl)methoxy]-20,22-dimethyl-16-[(4-methylpiperazin-1-yl)methyl]-7,8,15,16-tetrahydro-18,21-etheno-13,9-(metheno)-6,14,17-trioxa-2-thia-3,5-diazacyclononadeca[1,2,3-cd]indene-7-carboxylic Acid] | 0.00176 | 0.073 | 0.016 | 0.0011
3 | Cc1c(Cl)c2c(Cl)c(C)c1-c1c(-c3ccc(F)cc3)sc3ncnc(c13)O[C@@H](C(=O)O)Cc1cc(ccc1OCc1ccnc(C(C)(C)COCCOC[C@H]3COCCO3)n1)OC[C@@H](CN1CCN(C)CC1)O2 [Example 80, (7R,16R)-19,23-dichloro-10-({2-[1-(2-{[(2R)-1,4-dioxan-2-yl]methoxy}ethoxy)-2-methylpropan-2-yl]pyrimidin-4-yl}methoxy)-1-(4-fluorophenyl)-20,22-dimethyl-16-[(4-methylpiperazin-1-yl)methyl]-7,8,15,16-tetrahydro-18,21-etheno-13,9-(metheno)-6,14,17-trioxa-2-thia-3,5-diazacyclononadeca[1,2,3-cd]indene-7-carboxylic Acid] | 0.000954 | 0.797 | 0.107 | 0.000189
4 | COCCOCCOCCOCCOCC1(c2nccc(COc3ccc4cc3C[C@H](C(=O)O)Oc3ncnc5sc(-c6ccc(F)cc6)c(c35)-c3c(C)c(Cl)c(c(Cl)c3C)O[C@H](CN3CCN(C)CC3)CO4)n2)CCC1 [Example 58, (7R,16R)-19,23-dichloro-1-(4-fluorophenyl)-20,22-dimethyl-16-[(4-methylpiperazin-1-yl)methyl]-10-({2-[1-(2,5,8,11,14-pentaoxapentadecan-1-yl)cyclobutyl]pyrimidin-4-yl}methoxy)-7,8,15,16-tetrahydro-18,21-etheno-13,9-(metheno)-6,14,17-trioxa-2-thia-3,5-diazacyclononadeca[1,2,3-cd]indene-7-carboxylic Acid] | 0.00056 | 0.161 | 0.05 | 0.000378
5 | Cc1c(Cl)c2c(Cl)c(C)c1-c1c(-c3ccc(F)cc3)sc3ncnc(c13)O[C@@H](C(=O)O)Cc1cc(ccc1OCc1ccnc(N3CC4C(C3)C4(F)F)n1)OC[C@@H](CN1CCN(C)CC1)O2 (stereo partly drawn) [Example 33, (7R,16R)-19,23-dichloro-10-{[2-(6,6-difluoro-3-azabicyclo[3.1.0]hexan-3-yl)pyrimidin-4-yl]methoxy}-1-(4-fluorophenyl)-20,22-dimethyl-16-[(4-methylpiperazin-1-yl)methyl]-7,8,15,16-tetrahydro-18,21-etheno-13,9-(metheno)-6,14,17-trioxa-2-thia-3,5-diazacyclononadeca[1,2,3-cd]indene-7-carboxylic Acid] | 0.00123 | 2.23 | 0.088 | 0.000282
6 | Cc1c2ccc(c1Cl)O[C@H](CN1CCN(C)CC1)COc1ccc(OCc3ccnc(-c4ccc(OC[C@H](O)CO)cc4)n3)c(c1)C[C@H](C(=O)O)Oc1ncnc3sc(-c4ccc(F)cc4)c-2c13 (atropisomer, axis not shown) [Example 18, (7R,16R,21S)-19-chloro-10-[(2-{4-[(2R)-2,3-dihydroxypropoxy]phenyl}pyrimidin-4-yl)methoxy]-1-(4-fluorophenyl)-20-methyl-16-[(4-methylpiperazin-1-yl)methyl]-7,8,15,16-tetrahydro-18,21-etheno-13,9-(metheno)-6,14,17-trioxa-2-thia-3,5-diazacyclononadeca[1,2,3-cd]indene-7-carboxylic Acid] | 0.00531 | 0.269 | 0.011 | 0.00295
7 | Cc1c(Cl)c2c(Cl)c(C)c1-c1c(-c3ccc(F)cc3)sc3ncnc(c13)O[C@@H](C(=O)O)Cc1cc(ccc1OCc1ccnc(-c3ccc(S(=O)(=O)N4CCOCC4)cc3)n1)OC[C@@H](CN1CCN(C)CC1)O2 [Example 145, (7R,16R)-19,23-dichloro-1-(4-fluorophenyl)-20,22-dimethyl-16-[(4-methylpiperazin-1-yl)methyl]-10-({2-[4-(morpholine-4-sulfonyl)phenyl]pyrimidin-4-yl}methoxy)-7,8,15,16-tetrahydro-18,21-etheno-13,9-(metheno)-6,14,17-trioxa-2-thia-3,5-diazacyclononadeca[1,2,3-cd]indene-7-carboxylic Acid] | 0.000973 | 0.399 | 0.081 | 0.000407
8 | COCCOCCOCCOCC1(F)CC=C(c2nccc(COc3ccc4cc3C[C@H](C(=O)O)Oc3ncnc5sc(C6=CCCC6)c(c35)-c3c(C)c(Cl)c(c(Cl)c3C)O[C@H](CN3CCN(C)CC3)CO4)n2)CC1 (single isomer, unassigned) [Example 125, (7R,16R)-19,23-dichloro-1-(cyclopent-1-en-1-yl)-10-({2-[(4S*)-4-fluoro-4-(2,5,8,11-tetraoxadodecan-1-yl)cyclohex-1-en-1-yl]pyrimidin-4-yl}methoxy)-20,22-dimethyl-16-[(4-methylpiperazin-1-yl)methyl]-7,8,15,16-tetrahydro-18,21-etheno-13,9-(metheno)-6,14,17-trioxa-2-thia-3,5-diazacyclononadeca[1,2,3-cd]indene-7-carboxylic Acid] | 0.00111 | 0.455 | 0.037 | 0.000288
9 | Cc1c(Cl)c2c(Cl)c(C)c1-c1c(-c3ccc(F)cc3)sc3ncnc(c13)O[C@@H](C(=O)O)Cc1cc(ccc1OCc1ccnc(-c3cccc(CN4CCS(=O)(=O)CC4)c3)n1)OC[C@@H](CN1CCN(C)CC1)O2 [Example 117, (7R,16R)-19,23-dichloro-10-[(2-{3-[(1,1-dioxo-1λ^6-thiomorpholin-4-yl)methyl]phenyl}pyrimidin-4-yl)methoxy]-1-(4-fluorophenyl)-20,22-dimethyl-16-[(4-methylpiperazin-1-yl)methyl]-7,8,15,16-tetrahydro-18,21-etheno-13,9-(metheno)-6,14,17-trioxa-2-thia-3,5-diazacyclononadeca[1,2,3-cd]indene-7-carboxylic Acid] | 0.000364 | 0.219 | 0.025 | 0.000205
10 | Cc1c(Cl)c2c(Cl)c(C)c1-c1c(-c3ccc(F)cc3)sc3ncnc(c13)O[C@@H](C(=O)O)Cc1cc(ccc1OCc1ccnc(N3C[C@H](O)[C@@H](O)C3)n1)OC[C@@H](CN1CCN(C)CC1)O2 [Example 56, (7R,16R)-19,23-dichloro-10-({2-[(3S,4S)-3,4-dihydroxypyrrolidin-1-yl]pyrimidin-4-yl}methoxy)-1-(4-fluorophenyl)-20,22-dimethyl-16-[(4-methylpiperazin-1-yl)methyl]-7,8,15,16-tetrahydro-18,21-etheno-13,9-(metheno)-6,14,17-trioxa-2-thia-3,5-diazacyclononadeca[1,2,3-cd]indene-7-carboxylic Acid] | 0.13 | 1.18 | 0.157 | 0.0534
11 | COCCOCCOCCOc1cccc(COc2ccc3cc2C[C@H](C(=O)O)Oc2ncnc4sc(-c5ccc(F)cc5)c(c24)-c2c(C)c(Cl)c(c(Cl)c2C)O[C@H](CN2CCN(C)CC2)CO3)c1 [Example 156, (7R,16R)-19,23-dichloro-1-(4-fluorophenyl)-10-[(3-{2-[2-(2-methoxyethoxy)ethoxy]ethoxy}phenyl)methoxy]-20,22-dimethyl-16-[(4-methylpiperazin-1-yl)methyl]-7,8,15,16-tetrahydro-18,21-etheno-13,9-(metheno)-6,14,17-trioxa-2-thia-3,5-diazacyclononadeca[1,2,3-cd]indene-7-carboxylic Acid] | 0.0111 | 23.6 | 1.88 | 0.00453
12 | COCCOCCO[C@]1(c2nccc(COc3ccc4cc3C[C@H](C(=O)O)Oc3ncnc5sc(-c6ccc(F)cc6)c(c35)-c3c(C)c(Cl)c(c(Cl)c3C)O[C@H](CN3CCN(C)CC3)CO4)n2)CC[C@@H](OCC2COCCO2)CC1 (stereo partly drawn) [Example 121, (7R,16R)-19,23-dichloro-10-[(2-{(1r,4r)-4-[(1,4-dioxan-2-yl)methoxy]-1-[2-(2-methoxyethoxy)ethoxy]cyclohexyl}pyrimidin-4-yl)methoxy]-1-(4-fluorophenyl)-20,22-dimethyl-16-[(4-methylpiperazin-1-yl)methyl]-7,8,15,16-tetrahydro-18,21-etheno-9,13-(metheno)-6,14,17-trioxa-2-thia-3,5-diazacyclononadeca[1,2,3-cd]indene-7-carboxylic Acid] | 0.00956 | 0.231 | 0.052 | 0.00508
